What was measured:
[1] = system: mitochondria-bound hexokinase (mitochondrial fraction from a CT-26 tumor); test: Hexokinase detachment assay, mitochondrial fraction of CT-26 tumor; type: biochemical, murine; settings: CT-26 tumor mitochondrial fraction
Description: Mitochondrial fraction was prepared by mechanical lysis and differential centrifugation. All stages were performed on ice. Cells or extracted tissues were washed with PBS and disrupted by homogenization in extraction buffer (Sucrose 250 mM, HEPES-NaOH 10 mM, pH 7.2) freshly supplemented with 0.1 mM EDTA and Protease Inhibitors cocktail (Sigma). For each gram of cells or tissue, 4 volumes of extraction buffer were applied. The homogenate volume was doubled with the extraction buffer, and tissue and cell debris as well as nuclei were pelleted by centrifugation of 1,000 g for 10 minutes. The supernatant was further spun at 13,000 g for 10 minutes twice. Endoplasmic reticulum layer was removed. The pellet, designated as the mitochondrial fraction, was suspended in the appropriate buffer, depending on the assay for which the mitochondrial fraction was prepared. Mitochondrial fractions were used immediately or stored at −196° C.
To determine the amount of hexokinase detached from the mitochondrial fraction by different agents, mitochondria were incubated with the agent of interest and pelleted by centrifugation. Activity of hexokinase in the supernatant (i.e., activity of the detached hexokinase) was determined spectrophotometrically at 340 nm. The reaction couples the ADP formation by hexokinase, consuming the ADP for pyruvate formation by pyruvate kinase, and reducing the pyruvate with NADH by lactate dehydrogenase. Briefly, mitochondria were suspended in incubation buffer (HEPES pH 7.4 20 mM, Sucrose 0.25M, Glucose 10 mM, KCl5 mM, MgCl2 10 mM; 0.2 mg/test, 100 μL/test) and incubated as described below. […]
Methyl jasmonate perturbs mitochondria directly in a PTPC-dependent manner (Rotem, 2005). In order to determine whether methyl jasmonate is able to detach hexokinase from mitochondrial fraction isolated from CT-26 tumors, the activity of hexokinase in the supernatant of mitochondrial fraction treated for different time periods was measured. […] The activity of unbound hexokinase was measured and compared to the activity of spontaneously detached hexokinase (control).

[2] = system: HKI and HKII (mitochondrial fraction of Molt-4 cells); test: Western blot of supernatants with anti-HKI and anti-HKII, Molt-4 mitochondrial fraction; type: biochemical, human; settings: Molt-4 mitochondrial fraction supernatant
Description: For analysis of hexokinase levels, the experiments were performed similarly to hexokinase detachment assay described above, and unbound hexokinase in the supernatant fraction was extracted as described in Fingrut (2005). Samples were separated by sodium dodecylsulfate-polyacrylamide gel (7%) electrophoresis followed by immunoblotting. The blots were probed with specific anti-HKI or anti-HKII antibodies (1:300, Santa-Cruz Biotechnology, CA, USA). Hexokinase-antibody complexes were stained with HRP-conjugated antibody (1:10,000, Santa-Cruz Biotechnology, CA, USA). Enhanced chemiluminescence (ECL) reagent (Biological Industries, Beit Haemek, Israel) was added, and the blots were exposed to ECL film (Eastman Kodak, Rochester, N.Y., USA). Hexokinase detachment from mitochondrial fraction is not limited to CT-26 colon carcinoma. Mitochondrial fractions isolated from different cancer cells, namely Molt-4 cells, BCL-1 leukemic cells and B16 melanoma tumors were incubated for 30 minutes at 37° C., and the activity of unbound hexokinase was measured and compared to the activity of spontaneously (control) detached hexokinase. […] The supernatant of the experiments were separated on SDS-PAGE and probed with anti-HKI and anti-HKII antibodies.

purified rat brain HKI = target: T1, purified rat brain HKI (Rattus norvegicus, UniProt P05708); test: Surface plasmon resonance analysis of jasmonate-HK interactions; type: binding; settings: analyte injected at varying concentrations (MJ 0.375-6 mM); 25° C.
T1 construct: from tissue; host or cells: rat brain mitochondria
Description: Rat brain HK-I was purified as following, crude brain mitochondria containing tightly bound HK-I were incubated with 1.2 mM glucose-6-phosphate and 0.5 mM K-EDTA to release the enzyme into the soluble fraction. Further purification of HK-I was achieved by affinity chromatography on Cibacron Blue-agarose (Pharmacia). The purified enzyme was concentrated and washed in 0.5 mM K-EDTA, 10 mM glucose, 1 mM dithiothreitol and 10 mM K-Hepes, pH 7.8, using an Amicon device and a 50,000 Da molecular mass cut-off membrane (Spectrum; type C). The concentrated enzyme (up to 1 mg/ml; 30-60 units/mg) was frozen in liquid nitrogen and stored at −80° C. until use (Azoulay-Zohar, 2004).
Surface plasmon resonance (SPR) is an optical biosensor technique that measures molecular binding events at a metal surface by detecting changes in the local refractive index. SPR is the surface-sensitive technique ideal for studying interactions between immobilized biomolecules (ligands) and a solution-phase analyte. The biosensor response is directly proportional to the mass of the bound analyte. The advantage of SPR for investigation of small molecular weight analytes over conventional techniques such as fluorescence or enzyme-linked immunosorbent assay is detection of an analyte being label-free and direct, without the need for labeling of analyte or multistep detection protocols (sandwich assay). […]

T1 sequence (P05708 whole entry): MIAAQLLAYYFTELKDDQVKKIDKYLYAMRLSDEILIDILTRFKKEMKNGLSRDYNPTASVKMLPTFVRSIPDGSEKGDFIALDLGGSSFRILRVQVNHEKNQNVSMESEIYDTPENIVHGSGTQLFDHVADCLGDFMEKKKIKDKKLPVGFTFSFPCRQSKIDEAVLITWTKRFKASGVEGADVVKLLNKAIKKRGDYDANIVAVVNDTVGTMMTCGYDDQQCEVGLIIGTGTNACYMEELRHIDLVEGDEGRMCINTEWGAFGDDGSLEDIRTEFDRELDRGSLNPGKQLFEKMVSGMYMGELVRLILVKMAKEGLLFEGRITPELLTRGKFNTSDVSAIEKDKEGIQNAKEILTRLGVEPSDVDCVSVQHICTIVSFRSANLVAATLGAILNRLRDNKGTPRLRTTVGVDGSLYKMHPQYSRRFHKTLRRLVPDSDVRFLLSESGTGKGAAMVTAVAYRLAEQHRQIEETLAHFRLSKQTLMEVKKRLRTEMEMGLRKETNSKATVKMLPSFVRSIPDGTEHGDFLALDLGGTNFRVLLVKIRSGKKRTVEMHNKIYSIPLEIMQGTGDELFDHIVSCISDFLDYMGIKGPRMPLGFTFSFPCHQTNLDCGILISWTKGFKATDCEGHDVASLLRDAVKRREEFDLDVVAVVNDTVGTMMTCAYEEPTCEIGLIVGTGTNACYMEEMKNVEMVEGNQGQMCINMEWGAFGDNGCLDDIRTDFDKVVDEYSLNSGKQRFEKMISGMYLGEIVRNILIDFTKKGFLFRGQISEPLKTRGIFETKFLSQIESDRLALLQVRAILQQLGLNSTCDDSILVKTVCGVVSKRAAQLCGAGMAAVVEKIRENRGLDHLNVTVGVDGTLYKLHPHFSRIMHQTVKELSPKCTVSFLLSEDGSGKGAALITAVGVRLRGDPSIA

## CC/C=C\CC1C(=O)CCC1CC(=O)OC (stereo not shown) [methyl jasmonate]
[1]; 3 mM, 10, 30 or 60 minutes at 37° C.
  detachment of hexokinase (activity of unbound hexokinase compared to spontaneously detached control), time course: detached hexokinase in a time-dependent manner
[1]; 30 minutes of incubation
  detachment of hexokinase (activity of unbound hexokinase compared to control), dose dependence: dose-dependent
[2]
  detachment of hexokinase confirmed by immunoblot (anti-HKI, anti-HKII): detachment of hexokinase from mitochondrial fraction of the various cancer cells was further confirmed
Purified rat brain HKI
  binding to immobilized hexokinase (SPR): bind to purified rat brain HKI in a dose-dependent manner

Source: patent US8349553B2, “Jasmonate based assays for identifying compounds that selectively inhibit mitochondrial bound hexokinases” (Ramot at Tel Aviv University Ltd., priority 2007, dated 2013)
